Assays:
RIPK1 = RIPK1 (Homo sapiens (Human), UniProt Q13546); assay: ADP-Glo kinase assay (RIPK1 activity, conversion of ATP to ADP); assay type: biochemical; conditions: for IC50: 5 nM RIPK1, 50 μM ATP, 6 h reaction, read-out: RIPK1 Enzyme Avg IC50
In short: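 RIPK1 (5 nM final) was preincubated 10 min at rt with 1:3-diluted compounds in HEPES pH 7.5/MgCl2/DTT/BSA/CHAPS buffer. ATP (50 μM final) was then added for 6 h, and ADP formed was read by ADP-Glo luminescence. IC50 values came from four-parameter logistic fitting.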

[1] = system: human monocytic cell line U937; assay: Human U937 cellular necroptosis assay (TNFalpha + z-VAD-FMK, Cell Titer-Glo viability); assay type: cell-based; conditions: Homo sapiens, U-937, 22 h, U937 cells, 25 ng/mL human TNFalpha + 25 μM z-VAD-FMK, read-out: hU937 Avg IC50
In short: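 Readout is CellTiter-Glo 2.0 luminescence after 22 h at 37° C with compound, in cells triggered by human TNFalpha (25 ng/mL) and z-VAD-FMK (25 μM) in phenol red-free RPMI/10% FBS. Values are run-averaged IC50s from a four-parameter logistic curve.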

Sequence of RIPK1 (Q13546 1-327): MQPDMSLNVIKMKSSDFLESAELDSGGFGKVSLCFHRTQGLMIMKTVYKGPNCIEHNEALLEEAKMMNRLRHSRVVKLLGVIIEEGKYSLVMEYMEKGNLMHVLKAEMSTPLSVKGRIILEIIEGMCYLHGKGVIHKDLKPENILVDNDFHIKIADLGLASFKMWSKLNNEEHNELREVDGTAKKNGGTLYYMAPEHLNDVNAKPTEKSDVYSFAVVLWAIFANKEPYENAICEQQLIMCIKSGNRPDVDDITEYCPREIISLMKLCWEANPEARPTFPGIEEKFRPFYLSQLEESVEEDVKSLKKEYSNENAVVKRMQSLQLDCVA

SMILES	IC50 (RIPK1) [nM]	IC50 [1] [nM]	observed potency relative to the other enantiomer (RIPK1; enantiomers separated by SFC, assay not named)
O=C(N1N=CCC1c1cc(F)cc(F)c1)C12CC(Cn3nc(Cl)c4ccccc43)(C1)C2 (stereo not drawn) [Example 141, (3-((3-chloro-1H-indazol-1-yl)methyl)bicyclo[1.1.1]-pentan-1-yl)(5-(3,5-difluorophenyl)-4,5-dihydro-1H-pyrazol-1-yl)methanone]	34	58	–
Cc1csc(C2CC=NN2C(=O)C23CC(Cn4cc(C#N)cn4)(C2)C3)n1 (stereo not drawn) [Example 170, 1-((3-(5-(4-methylthiazol-2-yl)-4,5-dihydro-1H-pyrazole-1-carbonyl)bicyclo[1.1.1]-pentan-1-yl)methyl)-1H-pyrazole-4-carbonitrile]	4670	9890	–
Cc1ccc2c(cnn2CC23CC(C(=O)N4N=CCC4c4cncc(F)c4)(C2)C3)n1 (stereo not drawn) [Example 132, (5-(5-fluoropyridin-3-yl)-4,5-dihydro-1H-pyrazol-1-yl)(3-((5-methyl-1H-pyrazolo[4,3-b]pyridin-1-yl)methyl)-bicyclo[1.1.1]pentan-1-yl)methanone]	139	826	–
CC1=NN(C(=O)C23CC(Cn4cc(C#N)cn4)(C2)C3)C(c2cc(F)cc(F)c2)C1 (stereo not drawn) [Example 47, 1-((3-(5-(3,5-difluorophenyl)-3-methyl-4,5-dihydro-1H-pyrazole-1-carbonyl)-bicyclo[1.1.1]pentan-1-yl)methyl)-1H-pyrazole-4-carbonitrile]	93	1110	–
NC(=O)c1cn(CC23CC(C(=O)N4N=CCC4c4cc(F)cc(F)c4)(C2)C3)nn1 (stereo not drawn) [Example 54, 1-((3-(5-(3,5-difluorophenyl)-4,5-dihydro-1H-pyrazole-1-carbonyl)-bicyclo[1.1.1]pentan-1-yl)methyl)-1H-1,2,3-triazole-4-carboxamide]	409	2640	–
N#Cc1cccc(C2CC=NN2C(=O)C23CC(Cn4ncc5cc(C#N)ccc54)(C2)C3)c1 (stereo not drawn) [Example 175, 1-((3-(5-(3-cyanophenyl)-4,5-dihydro-1H-pyrazole-1-carbonyl)bicyclo[1.1.1]-pentan-1-yl)methyl)-1H-indazole-5-carbonitrile]	16	47	–
O=C(N1N=CCC1c1cc(F)cc(F)c1)C12CC(Cn3cc4cc(F)ccc4n3)(C1)C2 (stereo not drawn) [Example 3, (5-(3,5-Difluorophenyl)-4,5-dihydro-1H-pyrazol-1-yl)(3-((5-fluoro-2H-indazol-2-yl)methyl)bicyclo[1.1.1]pentan-1-yl)methanone]	51	112	–
CN(CC12CC(C(=O)N3N=CCC3c3cc(F)cc(F)c3)(C1)C2)c1cc(C#N)ncn1 (stereo not drawn) [Example 162, 6-(((3-(5-(3,5-difluorophenyl)-4,5-dihydro-1H-pyrazole-1-carbonyl)-bicyclo[1.1.1]pentan-1-yl)methyl)(methyl)amino)pyrimidine-4-carbonitrile]	46	210	–
N#Cc1cnc(OCC23CC(C(=O)N4N=CC[C@@H]4c4cc(F)cc(F)c4)(C2)C3)cn1 [Example 200, (R)-5-((3-(5-(3,5-difluorophenyl)-4,5-dihydro-1H-pyrazole-1-carbonyl)bicyclo[1.1.1]pentan-1-yl)methoxy)pyrazine-2-carbonitrile]	–	8560	less potent isomer
N#Cc1cc(OCC23CC(C(=O)N4N=CCC4c4cncc(F)c4)(C2)C3)ncn1 (stereo not drawn) [Example 126, 6-((3-(5-(5-fluoropyridin-3-yl)-4,5-dihydro-1H-pyrazole-1-carbonyl)bicyclo[1.1.1]-pentan-1-yl)-methoxy)pyrimidine-4-carbonitrile]	49	440	–
O=C(N1N=CCC1c1cc(F)cc(F)c1)C12CC(COc3ccc(F)cc3Cl)(C1)C2 (stereo not drawn) [Example 334, (3-((2-chloro-4-fluoro-phenoxy)methyl)bicyclo-[1.1.1]pentan-1-yl)(5-(3,5-difluorophenyl)-4,5-dihydro-1H-pyrazol-1-yl)methanone]	18	45	–
O=C(N1N=CCC1c1cc(F)cc(F)c1)C12CC(COc3cc(Br)ncn3)(C1)C2 (stereo not drawn) [Example 6, (3-(((6-Bromopyrimidin-4-yl)oxy)methyl)bicyclo[1.1.1]pentan-1-yl)(5-(3,5-difluorophenyl)-4,5-dihydro-1H-pyrazol-1-yl)methanone]	23	20	–
O=C(N1N=CCC1c1cc(F)cc(F)c1)C12CC(CO)(C1)C2 (stereo not drawn) [Example 208, (5-(3,5-Difluorophenyl)-4,5-dihydro-1H-pyrazol-1-yl)(3-(hydroxymethyl)bicyclo[1.1.1]pentan-1-yl)methanone]	2270	4300	–
O=C(N1N=CCC1c1cc(F)cc(F)c1)C12CC(C(O)c3cccc(Cl)c3)(C1)C2 (stereo not drawn) [Example 230, (3((3-chlorophenyl)-(hydroxy)methyl)bicyclo-[1.1.1]pentan-1-yl)(5-(3,5-difluorophenyl)-4,5-dihydro-1H-pyrazol-1-yl)methanone]	93	407	–
Cc1nn(CC23CC(C(=O)N4N=CCC4c4cc(F)cc(F)c4)(C2)C3)c2ccccc12 (stereo not drawn) [Example 153, (5-(3,5-difluorophenyl)-4,5-dihydro-1H-pyrazol-1-yl)(3-((3-methyl-1H-indazol-1-yl)-methyl)bicyclo[1.1.1]pentan-1-yl)methanone]	204	553	–
N#Cc1cn(CC23CC(C(=O)N4N=CCC4c4cc(F)cc(F)c4)(C2)C3)cn1 (stereo not drawn) [Example 124, 1-((3-(5-(3,5-difluorophenyl)-4,5-dihydro-1H-pyrazole-1-carbonyl)bicyclo[1.1.1]-pentan-1-yl)methyl)-1H-imidazole-4-carbonitrile]	156	751	–
O=C(N1N=CCC1c1cc(F)cc(F)c1)C12CC(Cn3cc4c(n3)CCC4)(C1)C2 (stereo not drawn) [Example 144, (5-(3,5-difluorophenyl)-4,5-dihydro-1H-pyrazol-1-yl)(3-((5,6-dihydrocyclopenta[c]-pyrazol-2(4H)-yl)methyl)-bicyclo[1.1.1]pentan-1-yl)methanone]	145	1180	–
N#Cc1ccc2c(cnn2CC23CC(C(=O)N4N=CC[C@H]4c4cc(F)cc(F)c4)(C2)C3)c1 [Example 253, (S)-1-((3-(5-(3,5-difluoro-phenyl)-4,5-dihydro-1H-pyrazole-1-carbonyl)bicyclo-[1.1.1]pentan-1-yl)methyl)-1H-indazole-5-carbonitrile]	51	479	–
N#Cc1ccnc(OCC23CC(C(=O)N4CC(F)CC4c4cccc(F)c4)(C2)C3)c1 (stereo not drawn) [Example 26, 2-((3-(4-Fluoro-2-(3-fluorophenyl)pyrrolidine-1-carbonyl)-bicyclo[1.1.1]pentan-1-yl)methoxy)isonicotinonitrile]	59	472	–
N#Cc1cc(NCC23CC(C(=O)N4N=CCC4c4cc(F)cc(F)c4)(C2)C3)ncn1 (stereo not drawn) [Example 12, 6-(((3-(5-(3,5-Difluorophenyl)-4,5-dihydro-1H-pyrazole-1-carbonyl)bicyclo[1.1.1]pentan-1-yl)methyl)amino)pyrimidine-4-carbonitrile]	243	887	–
O=C(N1N=CCC1c1ccccc1)C12CC(Cn3ncc4c(F)cccc43)(C1)C2 (stereo not drawn) [Example 81, (3-((4-fluoro-1H-indazol-1-yl)methyl)bicyclo[1.1.1]-pentan-1-yl)(5-phenyl-4,5-dihydro-1H-pyrazol-1-yl)-methanone]	11	12	–
NC(=O)c1cc(OCC23CC(C(=O)N4N=CCC4c4cc(F)cc(F)c4)(C2)C3)ncn1 (stereo not drawn) [Example 8, 6-((3-(5-(3,5-Difluorophenyl)-4,5-dihydro-1H-pyrazole-1-carbonyl)bicyclo[1.1.1]pentan-1-yl)methoxy)pyrimidine-4-carboxamide]	28	51	–
Cc1cnc(C2CC=NN2C(=O)C23CC(Cn4cc(C#N)cn4)(C2)C3)cn1 (stereo not drawn) [Example 131, 1-((3-(5-(5-methylpyrazin-2-yl)-4,5-dihydro-1H-pyrazole-1-carbonyl)bicyclo[1.1.1]-pentan-1-yl)methyl)-1H-pyrazole-4-carbonitrile]	375	1920	–
Cn1c(=O)n(CC23CC(C(=O)N4N=CCC4c4cc(F)cc(F)c4)(C2)C3)c2ccccc21 (stereo not drawn) [Example 110, 1-((3-(5-(3,5-difluorophenyl)-4,5-dihydro-1H-pyrazole-1-carbonyl)bicyclo[1.1.1]-pentan-1-yl)methyl)-3-methyl-1,3-dihydro-2H-benzo[d]imidazol-2-one]	134	734	–
Cc1ccc(C2CC=NN2C(=O)C23CC(Cn4ncc5cc(C#N)ccc54)(C2)C3)nc1 (stereo not drawn) [Example 174, 1-((3-(5-(5-methylpyridin-2-yl)-4,5-dihydro-1H-pyrazole-1-carbonyl)bicyclo[1.1.1]-pentan-1-yl)methyl)-1H-indazole-5-carbonitrile]	48	63	–
O=C(N1N=CCC1c1cc(F)cc(F)c1)C12CC(COc3ccccc3Cl)(C1)C2 (stereo not drawn) [Example 336, (3-((2-chlorophenoxy)methyl)-bicyclo[1.1.1]pentan-1-yl)(5-(3,5-difluorophenyl)-4,5-dihydro-1H-pyrazol-1-yl)-methanone]	31	55	–
N#Cc1cnc2c(ccn2CC23CC(C(=O)N4N=CCC4c4cc(F)cc(F)c4)(C2)C3)c1 (stereo not drawn) [Example 212, 1-((3-(5-(3,5-difluorophenyl)-4,5-dihydro-1H-pyrazole-1-carbonyl)bicyclo[1.1.1]pentan-1-yl)methyl)-1H-pyrrolo[2,3-b]pyridine-5-carbonitrile]	11	19	–
